Test results taken from article PMC12562781 (International Journal of Molecular Sciences, 2025).
Values after ≈ are worked out from the molar mass of the structure shown. Read-outs that look alike come from different tables or passages of the source.

Legend:
[1] = tested on: human liver cancer cell lines (HepG2); assay: MTT cytotoxicity assay, HepG2 cells; details: HepG2, 24 h, read-out: IC50 Values, cytotoxicity, HepG2
Experimental: (§1) The cells were allowed to grow to 90% confluency in an incubator set at 37 °C containing 5% CO2, before they were trypsinized and cultured in 96-well tissue culture plates. Stock and final concentrations of the compounds were prepared in the culture media.
(§2) Just 5 h before the elapse of 24 h, 10 µL of 5 mg/mL MTT solution was added to each well, and the plates were further incubated. At the end of the incubation period, the media was removed from each well and replaced with 50 µL of DMSO. The plates were shaken on a rotating shaker for 10 min before taking readings at 560 nm using a microplate reader (Elisa Plate Reader, BioTek Instruments, Inc., Winooski, VT, USA). […] IC50 values were calculated from the graphs as compound concentrations that reduced the absorbance at 560 nm by 50% of the untreated control wells. To exclude background readings, three wells were seeded with untreated cells in which MTT was not added. Assays were performed in triplicate to ensure reproducibility. The percentage inhibitions of cell proliferation were calculated using the following formula:% Cytotoxicity = ((A − B)/A) × 100 where: A is the absorbance of the negative control (untreated cells). B is the absorbance of the treated cells.
(§3) Data were presented as the cumulative mean of each compound. Each compound was run in triplicate. GraphPad Prism (version 5) was used for statistical analysis of all data. For all the data, one-way analysis of variance (ANOVA) followed by Bonferroni’s multiple comparison tests was used to compare the means of one group with every other group. Statistical significance was set at 5%; thus, a p-value ≤ 0.05 was considered significant. Concentrations that inhibit cell proliferation by 50% (IC50) were calculated using Graphpad Prism 5 software.

[2] = tested on: breast adenocarcinoma cancer cell lines (MDA); assay: MTT cytotoxicity assay, MDA cells; details: Homo sapiens, 24 h, read-out: IC50 Values, cytotoxicity, MDA
Experimental: as §1, §2, §3

[3] = tested on: human prostate cancer cell lines (PC3); assay: MTT cytotoxicity assay, PC3 cells
Experimental: as §1, §2
Data were presented as the cumulative mean of each compound. Each compound was run in triplicate. GraphPad Prism (version 5) was used for statistical analysis of all data. […]

HEK293 = tested on: HEK293; design: method as in PMID 24108397; details: cited from earlier work
HepG2 = tested on: HepG2; design: method as in PMID 24108397; details: cited from earlier work
[4] = MTT cytotoxicity assay, KMST-6 cells; assay type: cell-based, human; details: human
Experimental: (§4) Assays were performed in triplicate to ensure reproducibility. […] B is the absorbance of the treated cells.
(§5) Each compound was run in triplicate.

Plasmodium berghei = tested on: Plasmodium berghei; design: method as in PMID 24108397; details: mice; cited from earlier work
Hep-G2 = details: cited from earlier work
Plasmodium = tested on: Plasmodium; design: method as in PMID 24108397; details: cited from earlier work
MDA-MB-231 = details: cited from earlier work
MCF-7 cells = tested on: MCF-7 cells; design: method as in PMID 24658565; details: read-out: cytotoxic IC50, MCF-7; cited from earlier work
HT-29 cells = tested on: HT-29 cells; design: method as in PMID 24658565; details: read-out: cytotoxic IC50, HT-29; cited from earlier work
HeLa cells = tested on: HeLa cells; design: method as in PMID 24658565; details: read-out: cytotoxic IC50, HeLa; cited from earlier work
[5] = tested on: non-cancerous human fibroblast cell lines (KMST-6); assay: MTT cytotoxicity assay, KMST-6 cells; assay type: cell-based; details: MTT, 24 h, 0.156 µM to 10 µM, triplicate; non-cancerous cells
Experimental: as §4, §5

[6] = tested on: human breast cancer cells (MDA-MB-231); design: method as in PMID 28231262; details: cited from earlier work
[7] = tested on: Vero cells and human liver cancer cells; design: method as in earlier work; details: cited from earlier work
Funtumia africana = tested on: Funtumia africana; design: method as in earlier work; details: cited from earlier work
HL60 cells = tested on: HL60 cells; design: method as in doi:10.1007/s00044-014-1093-y; details: cited from earlier work

For `CC(=O)O[C@H]1CC[C@]2(C)[C@H]3CC=C4[C@@H]5[C@@H](C)[C@H](C)CC[C@]5(C(=O)O)CC[C@@]4(C)[C@]3(C)CC[C@H]2C1(C)C` [Compound 3, 3-O-acetyl ursolic acid], the IC50 [1] was 0.85 µM, the IC50 [2] was 3.93 µM and the “IC50 Values, cytotoxicity, PC3” value [3] was “ns”. For the same compound, the “cytotoxicity IC50, HEK293” value (HEK293) was 366.00 µg/mL, the “cytotoxicity IC50, HepG2” value (HepG2) was 566.09 µg/mL and the IC50 at 24 h [4] was 4.88 µM. The decrease of parasitemia (Plasmodium berghei) was 94.01% and the “cytotoxicity IC50, Hep-G2” value (Hep-G2) was 4.73 µg/mL.

For `COC1CCC2(C)C3CCC4(C)C(=CCC5(C)CCC(C)(C)CC54)C3(C)CCC2C1(C)C` (centres unmarked) [sawamilletin], the “anti-plasmodial IC50” value (Plasmodium; unit not given) is listed as over 100.

`C[C@H]1[C@H](C)CC[C@]2(C(=O)O)CC[C@]3(C)C(=CC[C@@H]4[C@@]5(C)CC[C@H](O)C(C)(C)[C@@H]5CC[C@]43C)[C@H]12` [Compound 1, ursolic acid] showed an IC50 [1] of 0.261 µM, an IC50 [2] of over 5 µM and an IC50 ([3]; read-out: IC50 Values, cytotoxicity, PC3, MTT, 24 h, 0.156 µM to 10 µM, triplicate) of 0.262 µM. For the same compound, the “concentration that inhibits cell proliferation” value (MDA-MB-231) was at least 160 µg/mL, the IC50 (MCF-7 cells) was 20 µM and the IC50 (HT-29 cells) was 10 µM. For the same compound, the IC50 (HeLa cells) was 10 µM, the “IC50 Values, cytotoxicity, KMST-6” value [5] was “ns” and the “anti-plasmodial IC50” value (Plasmodium) was 6.8 µg/mL.

With `CC1(C)CC[C@]2(C(=O)O)CC[C@]3(C)C(=CC[C@@H]4[C@@]5(C)CC[C@H](O)C(C)(C)[C@@H]5CC[C@]43C)[C@@H]2C1` [Compound 2, oleanolic acid] the IC50 [1] was 1.2 µM, the IC50 [2] was 4.48 µM and the IC50 at 24 h ([4]; KMST-6 non-cancerous fibroblast cells, MTT, 24 h, 0.156 µM to 10 µM, triplicate, non-cancerous cells, read-out: IC50 Values, cytotoxicity, KMST-6) was 3.88 µM. The “effect on cell migration” value [6] was “clearly enhanced cell migration”.

For `COC(=O)[C@]12CC[C@@H](C)[C@H](C)C1C1=CCC3[C@@]4(C)CC[C@H](OC(C)=O)C(C)(C)C4CC[C@@]3(C)[C@]1(C)CC2` (some centres unmarked) [Compound 5, 3-acetylursolic-methylate], the IC50 [1] was 0.85 µM, the IC50 [2] was 1.9 µM and the IC50 at 24 h [4] was over 5 µM.

In the case of `CC1(C)CC[C@]2(C)CC=C3[C@]4(C)CC[C@H]5C(C)(C)[C@@H](O)CC[C@]5(C)[C@H]4CC[C@@]3(C)[C@@H]2C1` [taraxerol], the “anti-plasmodial IC50” value (Plasmodium; unit not given) is listed as over 100.

For `COC(=O)[C@]12CC[C@@H](C)[C@H](C)[C@H]1C1=CC[C@@H]3[C@@]4(C)CC[C@H](O)C(C)(C)[C@@H]4CC[C@@]3(C)[C@]1(C)CC2` [Compound 4, ursolic-28-methylate], the IC50 [1] is given as 1.6 µM, the IC50 [2] is given as 2.48 µM and the “cytotoxicity IC50” value [7] is given as 10.4 µg/mL. For the same compound, the MIC (Funtumia africana) was 62.5 µg/mL (≈ 133 µM), the IC50 at 24 h [4] was over 5 µM and the “ED50, HL60” value (HL60 cells) was 22.7 µg/mL (≈ 48.2 µM).
